Measured values published in article PMC12723449, “From Pharmacophore to Warhead: NAD^+‐Targeting Triazoles as Mechanism‐Based Sirtuin Inhibitors” (Angewandte Chemie (International Ed. in English), 2025).
Entries after “also recorded” stand apart in the source; their conditions may differ.

Tests used:
[1] = target: T1, NanoLuc–SIRT2 fusion protein in HEK293T cells (Homo sapiens, UniProt Q8IXJ6); assay: Kinetic NanoBRET washout assay (target residence time); format: cell-based; settings: 25 µM (5 × EC50), 2 h preincubation, 2 h washout
T1 construct: HEK293T cells stably expressing the NanoLuc-SIRT250-364-fusion target protein were seeded into the coated plates; expressed in transfected cells; host or cells: HEK293T (stably expressing)
T1 sequence (Q8IXJ6 50-364 limits assumed): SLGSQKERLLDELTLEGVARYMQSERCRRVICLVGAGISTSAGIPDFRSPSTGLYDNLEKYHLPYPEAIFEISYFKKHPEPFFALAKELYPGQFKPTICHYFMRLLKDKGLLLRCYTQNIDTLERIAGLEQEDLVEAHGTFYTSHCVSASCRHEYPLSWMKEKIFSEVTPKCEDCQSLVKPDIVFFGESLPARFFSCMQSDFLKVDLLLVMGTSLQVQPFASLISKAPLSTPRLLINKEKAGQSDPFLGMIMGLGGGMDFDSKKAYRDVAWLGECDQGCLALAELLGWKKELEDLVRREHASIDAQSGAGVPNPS
Experimental: NanoBRET washout assay for determination of target residence time
A NanoBRET-based washout assay was used to assess the target residence time of inhibitors for SIRT2 in living cells. White, flat-bottom 96-well plates (PerkinElmer) were pre-coated with poly-L-lysine (Sigma-Aldrich) to enhance cell adherence. Briefly, each well was treated with poly-L-lysine solution for 5 min at room temperature, followed by removal of the coating solution and air-drying before seeding.
Cells were treated with the indicated inhibitor
After incubation, the inhibitor-containing medium was aspirated, and a washout procedure was performed to remove unbound inhibitor. Each well was washed twice by sequential addition and removal of 100 µL Opti-MEM (Thermo Fisher Scientific). Following the final wash, 90 µL Opti-MEM was added per well, followed by 100 µL of 2× Nano-Glo® substrate solution (Promega) and 10 µL of 20× SIRT2-Tracer solution.
BRET measurements were recorded kinetically using a Tecan Spark® plate reader equipped with donor (460 nm)
The BRET ratio was monitored over time to track the re-binding of the

[2] = target: T2, NanoLuc–SIRT2 fusion protein in HEK293T cells (Homo sapiens, UniProt Q8IXJ6); design: method as in PMID 35441145; settings: read-out: NanoBRET EC50; cited from earlier work
T2 construct: transfected HEK293T cells expressing the NanoLuc-tagged SIRT250-356 fusion protein were used instead of transient; expressed in transfected cells; host or cells: HEK293T (stably transfected)
T2 sequence (Q8IXJ6 50-356 limits assumed): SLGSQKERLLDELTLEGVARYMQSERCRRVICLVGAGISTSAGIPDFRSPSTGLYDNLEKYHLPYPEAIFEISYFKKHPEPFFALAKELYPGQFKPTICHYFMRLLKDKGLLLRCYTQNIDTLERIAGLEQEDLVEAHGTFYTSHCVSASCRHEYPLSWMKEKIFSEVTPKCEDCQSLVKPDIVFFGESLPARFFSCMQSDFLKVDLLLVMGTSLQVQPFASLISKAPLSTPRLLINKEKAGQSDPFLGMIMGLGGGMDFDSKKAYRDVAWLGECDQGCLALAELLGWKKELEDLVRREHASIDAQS

For `O=C(NCc1cccnc1)c1ccc2c(c1)C1C3CCC(C3)C1C(c1ccccc1)N2` (centres unmarked) [AEM2, reference compound], the inhibition after washout [1] is given as “completely lost activity; also recorded: fades with washout over 2 h” and the EC50 [2] is given as 5.2 ± 0.2 µM.
